From patent publication US20150216182A1, “COMPOSITIONS AND METHODS OF THE ATTRACTION AND REPULSION OF INSECTS” (Olfactor Laboratories, Inc., priority 2012, published 2015)
Counter-ions that a name gives are not always drawn. Like-named read-outs stand apart in the source and are kept apart here.

Legend:
[1] = tested on: bed bugs (Cimex lectularius); experiment: bed bug repellency assay; assay type: in vivo; details: for % Rep (bed bug repellency): compound or combination on filter paper harborage, ten bed bugs
Experimental: Compounds and combinations of compounds of the present invention were assayed for their ability to repel bed bugs (Cimex lectularius) using a bed bug repellency assay. This assay takes advantage of the bed bug's natural tendency to seek harborage. Two petri dishes were obtained and the inner areas of each were sanded down (leaving the perimeter smooth.) Talc was applied on the perimeter and on the inside walls of the petri dishes with a small paint brush to prevent bed bugs from escaping. A cut off top portion of a solo bathroom cup was placed upside down in the center of one petri dish. A large plastic secondary container was gathered and a paper towel was laid down inside the bottom. The petri dish was then placed inside and ten bed bugs were placed inside the cut off portion of the solo cup. Next, two pieces of filter paper were cut down the middle to yield 4 equally sized halves. 3 pieces were placed inside a glass dish ([…]) and the remaining piece was placed in a separate dish. All 4 pieces were folded down the middle to create a “tent” or “harborage” when laid such that the folded crease faced up. 100 microliters of isopropyl alcohol was pipetted into 3 pieces of filter paper (all housed in the first glass dish.) In a separate 4 ml vial, 90 microliters of isopropyl alcohol was combined and vortexed with 10 microliters of the compound or compound combination being tested. 100 microliters of this solution [comprising a total of 100 mg of compound(s)] was pipetted onto the filter paper in the separate dish. All filter papers were then allowed to dry. Once dry, experiments were conducted first with two filter paper halves comprising only the isopropyl alcohol (control experiment) and then with the remaining filter paper halves [one with only isopropyl alcohol and one comprising the test compound(s).] Filter paper halves were placed on opposing sides of experimental petri dishes and bed bugs were allowed to move freely within the dishes for 5 minutes. Movement of bed bugs beneath each filter paper tent was recorded. […] In the Table, “Rep” refers to repellency and “Cmpd” refers to compound.

cpA neurons [2] = experiment: extracellular single-sensillum electrophysiology: inhibition of CO2-responsive (cpA) neuronal activity; details: for Class: Table 10, single compounds, percent reduction in cpA activity compared to baseline; for Class (inhibitor class of the individual component): Inh = inhibitor
cpA neurons [3] = experiment: extracellular single-sensillum electrophysiology: activation of cpA neuronal activity; details: for Class: Table 6, single compounds, increase over baseline cpA neuronal activity
larvae = experiment: larvicidal activity assay; assay type: in vivo; details: for pest or weed control at 0.25 %: read-out: % Lethality with 0.25% compound conc.; for pest or weed control at 100 ppm: read-out: % Lethality at 100 ppm
Experimental: A 6-well plate (Corning Life Sciences, Tewksbury, Mass.) is used to test a compound's larvicidal activity. […] After a 24 hour exposure, the number of dead larvae are counted and recorded.
The results are presented in Table 17 as % lethality (the number of dead larvae divided by the total number of larvae).

female mosquitoes = experiment: whole plant or invertebrate; details: 2 h; for mortality at 200 µg/mL: read-out: % mortality with 0.2 mg/ml; for mortality at 2000 µg/mL: read-out: % mortality with 2 mg/ml
[4] = Table 13, single component alone
[5] = 0.25% compound, 24 hour exposure, dead larvae / total larvae
[6] = 100 ppm compound, 24 hour exposure, dead larvae / total larvae
[7] = Table 16, single component alone

Row | Structure (SMILES) | % Rep (bed bug repellency) [1] [%] | Class (cpA neurons [2]) | pest or weed control at 0.25 % (larvae; [5]) [%] | pest or weed control at 100 ppm (larvae; [6]) [%] | mortality at 200 µg/mL (female mosquitoes) [%] | mortality at 2000 µg/mL (female mosquitoes) [%] | further results
1 | O=CCc1ccccc1 [OLI0121] | 100 |  |  |  |  |  | 
2 | CC/C=C\CCOC(=O)CCC [OLI0083, cis-3-hexenyl butyrate] |  | Mild Inhibitor (mild inhibitors (reducing activity by 20-40%)) |  |  |  |  | Class (inhibitor class of the individual component) (cpA neurons [2]; [4]): Mild
3 | CCOC(=O)CC(C)O (stereo not drawn) [OLI0042, ethyl 3-hydroxybutyrate] |  |  | 0 | 0 | 0 | 0 | Class (cpA neurons [3]): Mild Activator (mild activators yield an increase in neuronal activity that is between 20 and 40 spk/sec over baseline neuronal activity)
4 | CC(=O)CC/C=C(\C)CCC=C(C)C [OLI0089, Geranylacetone] |  | Mild Inhibitor (mild inhibitors (reducing activity by 20-40%)) |  |  |  |  | Class (inhibitor class of the individual component) (cpA neurons [2]; [4]): Mild
5 | COc1ccc(C=O)cc1OC [OLI0095, Veratraldehyde] |  | Mild Inhibitor (mild inhibitors (reducing activity by 20-40%)) |  |  |  |  | Class (inhibitor class of the individual component) (cpA neurons [2]; [4]): Mild
6 | CC/C=C\CCOC(C)=O [OLI0073, cis-3-hexenyl acetate] |  | Moderate Inhibitor (moderate inhibitors (reducing activity by 40-60%)) | 95 | 0 | 0 | 0 | Class (inhibitor class of the individual component) (cpA neurons [2]; [4]): Mod
7 | CCCCCCOC(=O)CCC [OLI0119, hexyl butyrate] | 59 |  | 15 | 0 | 0 | 0 | 
8 | CCCC(=O)OC(C)(C)Cc1ccccc1 [OLI0082, alpha,alpha-dimethyl phenethyl butyrate] |  | Mild Inhibitor (mild inhibitors (reducing activity by 20-40%)) |  |  |  |  | Class (inhibitor class of the individual component) (cpA neurons [2]; [4]): Mild
9 | CCOC(=O)C=Cc1ccccc1 [OLI0110, ethyl cinnamate] | 59 |  | 100 | 0 | 0 | 100 | 
10 | O=COCC=Cc1ccccc1 [OLI0107, cinnamyl formate] | 100 |  | 100 | 0 | 0 | 100 | 
11 | O=C(C=Cc1ccccc1)OCc1ccccc1 [OLI0120, benzyl cinnamate] | 21 |  | 0 | 0 | 0 | 0 | 
12 | CC12CCC(CC1)C(C)(C)O2 [OLI0087, Eucalyptol] |  | Mild Inhibitor (mild inhibitors (reducing activity by 20-40%)) |  |  |  |  | 
13 | COC(=O)/C=C/c1ccccc1 [OLI0114, methyl trans-cinnamate] | 70 |  | 100 | 0 | 0 | 100 | 
14 | CCC(=O)OCC=Cc1ccccc1 [OLI0109, cinnamyl propionate] | 41 |  | 100 | 0 | 0 | 100 | 
15 | CCC(=O)OCCc1ccccc1 [OLI0076, Phenethyl propionate] |  | Moderate Inhibitor (moderate inhibitors (reducing activity by 40-60%)) | 100 | 0 | 0 | 100 | Class (inhibitor class of the individual component) (cpA neurons [2]; [4]): Mod; Class (inhibitor class of the individual component) (cpA neurons [2]; [7]): Mod; inhibitor class of single compound (cpA neurons [2]; single compound): moderate inhibitor (40-60% reduction in neuronal activity as compared to baseline activity of the neuron)
16 | CCC(=O)OC/C=C/c1ccccc1 [OLI0105, trans-cinnamyl propionate] | 35 |  | 100 | 0 | 0 | 85 | 
17 | CC(C)=CCC/C(C)=C/CO [geraniol] |  |  |  |  |  |  | ability to repel bed bugs ([1]; 100 microliters solution on filter paper tent, 5 minutes): surprisingly strong ability to repel bed bugs
18 | CCOC(=O)CC(C)=O [OLI0022, ethylacetoacetate] |  |  |  |  | 0 | 0 | Class (cpA neurons [3]): Moderate Activator (Moderate activators yield an increase in neuronal activity that is between 40 and 60 spk/sec over baseline neuronal activity); Comp A Class (cpA neurons [3]; Table 9, component A tested individually): Mod; Comp B Class (cpA neurons [3]; Table 9, component B tested individually): Mod; Class B (activator class of the individual component) (cpA neurons [3]; Table 15, single component alone, Mod Actv): Mod
19 | CCCCCCC(=O)OCC [OLI0086, Ethylheptanoate] |  | Mild Inhibitor (mild inhibitors (reducing activity by 20-40%)) |  |  |  |  | 
20 | CCCCC1OC(=O)CC1C (stereo not drawn) [OLI0094, whiskey lactone] |  | Mild Inhibitor (mild inhibitors (reducing activity by 20-40%)) |  |  |  |  | 
21 | CCCCCCCCO [OLI0080, 1-octanol] |  | Mild Inhibitor (mild inhibitors (reducing activity by 20-40%)) |  |  |  |  | Class (inhibitor class of the individual component) (cpA neurons [2]; [4]): Mild; Class (inhibitor class of the individual component) (cpA neurons [2]; [7]): Mild
22 | C=CCOC(=O)C=Cc1ccccc1 [OLI0104, allyl cinnamate] | 54 |  | 100 | 15 | 0 | 45 | 
23 | CCOC(=O)c1cccnc1 [OLI0085, ethyl nicotinate] |  | Mild Inhibitor (mild inhibitors (reducing activity by 20-40%)) |  |  |  |  | 
24 | COC(=O)C=Cc1ccccc1 [OLI0113, methyl cinnamate] | 68 |  | 100 | 0 | 0 | 100 | 
25 | COC1=C(C)OC(C)C1=O (stereo not drawn) [OLI0081, 2,5-dimethyl-4-methoxy-3(2H) furanone] |  | Mild Inhibitor (mild inhibitors (reducing activity by 20-40%)) |  |  |  |  | 
26 | CCCC(=O)OC/C=C(\C)CCC=C(C)C [OLI0090, Geranylbutyrate] |  | Mild Inhibitor (mild inhibitors (reducing activity by 20-40%)) |  |  |  |  | 
27 | CCC/C=C\CCOC(C)=O [OLI0078, (Z)-hept-3-enylacetate] |  | Mild Inhibitor (mild inhibitors (reducing activity by 20-40%)) |  |  |  |  | Class (inhibitor class of the individual component) (cpA neurons [2]; [4]): Mild; Class (inhibitor class of the individual component) (cpA neurons [2]; [7]): Mild
28 | Cc1ccc(C=O)c(C)c1 [OLI0030, 2,4-dimethyl benzaldehyde] |  |  |  |  |  |  | Class (cpA neurons [3]): Mild Activator (mild activators yield an increase in neuronal activity that is between 20 and 40 spk/sec over baseline neuronal activity)
29 | COc1ncccc1C |  |  |  |  |  |  | effect on CO2-receptor activity (FIG. 1) (cpA neurons [2]; 1% concentration in paraffin oil): inhibitor
30 | CC1CCC(C(C)C)C(O)C1 (stereo not drawn) [OLI0115, Menthol] | 60 |  |  |  | 0 | 0 | pest or weed control at 100 ppm (larvae; 24 h): 0%; pest or weed control at 0.25 % (larvae; 24 h): 100%
